In US11844801B2, “Oral compositions of MK2 pathway inhibitor for treatment of immune conditions” (priority 2020, dated 2023):
≈ marks a conversion by molar mass, not a printed value. Entries after “also recorded” stand apart in the source; their conditions may differ. Like-named read-outs stand apart in the source and are kept apart here.

Experiments:
[1] = tested on: TNF-α; assay: LPS stimulated TNF-α production in human whole blood; assay type: cell-based
Experimental: Compounds were serially diluted in 100% DMSO (Sigma-Aldrich, D2650) followed by a 50× dilution into DMEM/10% FBS (Gibco, 11965/26140). Vehicle consisted of DMSO at a final assay concentration of 0.1%. Pin tools (V&P Scientific, Inc., VP246) were placed in the wells and the plate was placed at 37° C. with 5% CO2, with gently shaking for five minutes, then pin tools were removed and saved. […] Pin tools were placed in the wells in the same orientation as the previous step and gently shook for five minutes at 37° C. with 5% CO2, then removed. […] The plasma was harvested and assayed for TNF-α, IL-1β, and IL-6 using Meso Scale Discovery Technology V-plex human cytokine kits according to the kit protocol. The kit plates were read using an MSD Sector S 6000 instrument. Calculations to establish cytokine calibration curves and to determine analyte concentrations in the samples were carried out using the MSD DISCOVERY WORKBENCH® analysis software.

[2] = tested on: IL-1β; assay: R848 stimulated IL-1β production in human whole blood; assay type: cell-based; settings: R848, 0.5 ug/mL, 5 hr
Experimental: Human whole blood assays were performed as described above with the exceptions listed below. […] Compounds were serially diluted in 100% DMSO (Sigma-Aldrich, D2650) followed by a 10× dilution into RPMI (Gibco, 11875). After the one-hour incubation with the compounds or vehicle, 2 μL of R848 (InvivoGen, tlrl-r848) in RPMI (Gibco, 11875) was added for a final concentration of 0.5 μg/mL to each well except for the no stimulus wells. After five hours of incubation with R848, plasma was harvested and assayed for TNF-α, IL-1β, IL-6 and IL-8 using Meso Scale Discovery Technology V-plex human cytokine kits according to the kit protocol.

[3] = tested on: regulatory T cells (CD45+ CD3+ CD4+ Foxp3+); assay: Murine collagen-induced arthritis model, T regulatory cells in popliteal lymph nodes; assay type: in vivo, mouse; settings: 1000 ppm chow from day 18, murine CIA model
Experimental: In this model DBA/1 mice (12/group) were immunized with bovine collagen/CFA to induce arthritis. […] At day 21, mice were boosted with bovine collagen/CFA, and at day 35 the study was terminated. Popliteal lymph nodes were dissected from mice, cleaned of any trace fat, mechanically dissociated and filtered through 70 micron cell strainers. Live lymphocytes were counted using a Moxi GO II cell counter (Orflo). One million lymphocytes were plated, treated with Fc block, and stained with antibodies targeting surface receptors (including CD45, CD3, CD4) along with a fixable live/dead dye. Cells were fixed/permeabilized (eBioscience Transcription Factor Staining kit) and stained with anti-Foxp3 antibody. The cells were collected via flow cytometry analysis on an Attune NxT instrument. T-regulatory cells were gated as lymphocyte-sized, live, CD45+ CD3+ CD4+ Foxp3+ cells.

[4] = tested on: IL-6; assay: IL-1β stimulated IL-6 production in human whole blood; assay type: cell-based
Experimental: Compounds were serially diluted in 100% DMSO (Sigma-Aldrich, D2650) followed by a 10× dilution into RPMI (Gibco, 11875). After the one-hour incubation with the compounds or vehicle, 2 μL of IL-1β (R&D, 201-LB-010) in RPMI (Gibco, 11875) was added for a final concentration of 0.5 μg/mL to each well except for the no stimulus wells. […]

[5] = tested on: TNF-α; assay: TLR2 ligand (Pam3) or LPS induced TNF-α in peripheral blood mononuclear cells; assay type: cell-based; settings: 10-10,000 nM
Experimental: LPS or Pam3 were then added to the designated wells for a final concentration of 100 ng/mL for both (or medium for unstimulated control). After 30 min MSU was added to the designated wells for final concentration of 100 μg/mL (or medium for no-MSU control). After a 6-hour incubation, plates were centrifuged at 500×g for 5 min, and medium was collected from each well for assay. Released TNF-α was measured using Meso Scale Discovery technology, an ELISA-like format with capture and detection antibodies, but with a final readout using electrochemiluminescence.

[6] = tested on: TNF-α, IL-1β, IL-6, and IL-8; assay: Phase 2a RA study: ex vivo LPS-stimulated cytokines in patient blood; parameters: species or system human; settings: 50 mg BID, 12 weeks
[7] = Phase 2a RA study: safety (adverse events)
Experimental: Patient eligibility was assessed based on the following criteria: (i) a diagnosis of adult onset RA (ACR/EULAR classification criteria); (ii) DAS28-CRP≥3.2 defined as moderate to high disease activity; (iii) moderately to severely active RA defined by at least 4/28 tender and 4/28 swollen joints; (iv) hsCRP≥5 mg/L at screening; (v) definitive intra-articular synovitis or osteitis defined as a score of 1 or greater on a Hand-Wrist MM (using RAMRIS); (vi) stable MTX dose (defined as 7.5 mg to 25 mg weekly) for at least 4 weeks prior to the screening visit. […] Study medications were administered orally for 12 weeks. Patients were required to remain on a stable dose of MTX (7.5 mg to 25 mg/week) and a stable dose of folic or folinic acid (≥5 mg/week) for the duration of the study.
Patients attended clinic visits on Days 7, 14, 28, 42, 56, and 84 (±1 day) for safety, efficacy, PK, and PD assessments. The morning dose of study medication was administered in the clinic on each study visit day.
At the completion of 4 weeks of treatment (Day 28), each patient's safety data (e.g., AEs, laboratory values, vital signs, and ECGs) will be reviewed to ensure that the patient is tolerating the treatment regimen and is deemed suitable to continue treatment for the next 8 weeks.

**Q.** For `Cc1cnc(-c2ccnc(C(C)(C)O)n2)cc1-n1c(C)cc(OCc2ncc(F)cc2F)c(Cl)c1=O` (single isomer, unassigned) [ATI-450, 3-chloro-4-((3,5-difluoropyridin-2-yl)methoxy)-2′-(2-(2-hydroxypropan-2-yl)pyrimidin-4-yl)-5′,6-dimethyl-2H-[1,4′-bipyridin]-2-one], which IC50 ([1]; Human Whole Blood, LPS, 100 ng/mL, 4 or 24 hr, read-out: IC50, TNF-α) is on record?
**A.** 0.029 ± 0.009 µM

**Q.** What about the IC50 ([1]; human whole blood, LPS 100 ng/mL, read-out: IC50, LPS-stimulated TNF-α) of the same molecule?
**A.** 0.01 to 0.1 µM

**Q.** What about the IC50 [2] of the same molecule?
**A.** 0.0956 ± 0.0348 µM

**Q.** What about the “number of regulatory T cells” value [3] of the same molecule?
**A.** significantly increased the number of regulatory T cells

**Q.** What about the IC50 ([4]; Human Whole Blood, IL-1β, 10 ng/mL, 5 hr) of the same molecule?
**A.** 0.0111 ± 0.0038 µM

**Q.** And the IC80 ([4]; human whole blood)?
**A.** 0.041 ± 0.02 µg/mL (≈ 0.0798 µM)

**Q.** What about the “TLR2 ligand induced TNF-α production” value [5] of the same molecule?
**A.** dose dependently inhibits

**Q.** What about the “ex vivo stimulated cytokines in RA patient blood” value [6] of the same molecule?
**A.** sustained inhibition of proinflammatory cytokines; also recorded: marked and durable inhibition

**Q.** What about the tolerability ([7]; 50 mg BID plus MTX, 12 weeks) of the same molecule?
**A.** very well tolerated, with no serious or severe adverse events reported

**Q.** And the “Abnormal ECG, Mild, n (%)” value ([7]; 50 mg BID, RA patients, n = 16)?
**A.** 1 (6.25)

**Q.** What about the “Abnormal ECG, Moderate, n (%)” value ([7]; 50 mg BID, RA patients, n = 16) of the same molecule?
**A.** 0

**Q.** And the “Blood cholesterol increased, Mild, n (%)” value ([7]; 50 mg BID, RA patients, n = 16)?
**A.** 1 (6.25)

**Q.** And the “Blood cholesterol increased, Moderate, n (%)” value ([7]; 50 mg BID, RA patients, n = 16)?
**A.** 0

**Q.** What about the “Blood creatine phosphokinase increased, Mild, n (%)” value ([7]; 50 mg BID, RA patients, n = 16) of the same molecule?
**A.** 0

**Q.** What about the “Blood creatine phosphokinase increased, Moderate, n (%)” value ([7]; 50 mg BID, RA patients, n = 16) of the same molecule?
**A.** 1 (6.25)

**Q.** What about the “Constipation, Mild, n (%)” value ([7]; 50 mg BID, RA patients, n = 16) of the same molecule?
**A.** 1 (6.25)

**Q.** And the “Constipation, Moderate, n (%)” value ([7]; 50 mg BID, RA patients, n = 16)?
**A.** 0

**Q.** And the “Ear infection, Mild, n (%)” value ([7]; 50 mg BID, RA patients, n = 16)?
**A.** 1 (6.25)

**Q.** And the “Ear infection, Moderate, n (%)” value ([7]; 50 mg BID, RA patients, n = 16)?
**A.** 0

**Q.** What about the “Essential hypertension, Mild, n (%)” value ([7]; 50 mg BID, RA patients, n = 16) of the same molecule?
**A.** 0

**Q.** What about the “Essential hypertension, Moderate, n (%)” value ([7]; 50 mg BID, RA patients, n = 16) of the same molecule?
**A.** 1 (6.25)

**Q.** What about the “Hyperliidaemia, Mild, n (%)” value ([7]; 50 mg BID, RA patients, n = 16) of the same molecule?
**A.** 0

**Q.** And the “Hyperliidaemia, Moderate, n (%)” value ([7]; 50 mg BID, RA patients, n = 16)?
**A.** 1 (6.25)

**Q.** And the “Hypokalaemia, Mild, n (%)” value ([7]; 50 mg BID, RA patients, n = 16)?
**A.** 0

**Q.** What about the “Hypokalaemia, Moderate, n (%)” value ([7]; 50 mg BID, RA patients, n = 16) of the same molecule?
**A.** 1 (6.25)

**Q.** What about the “Ligament sprain, Mild, n (%)” value ([7]; 50 mg BID, RA patients, n = 16) of the same molecule?
**A.** 1 (6.25)

**Q.** And the “Ligament sprain, Moderate, n (%)” value ([7]; 50 mg BID, RA patients, n = 16)?
**A.** 0

**Q.** What about the “Low density lipoprotein increased, Mild, n (%)” value ([7]; 50 mg BID, RA patients, n = 16) of the same molecule?
**A.** 1 (6.25)

**Q.** What about the “Low density lipoprotein increased, Moderate, n (%)” value ([7]; 50 mg BID, RA patients, n = 16) of the same molecule?
**A.** 0

**Q.** What about the “Mouth ulceration, Mild, n (%)” value ([7]; 50 mg BID, RA patients, n = 16) of the same molecule?
**A.** 1 (6.25)

**Q.** And the “Mouth ulceration, Moderate, n (%)” value ([7]; 50 mg BID, RA patients, n = 16)?
**A.** 0

**Q.** What about the “Palpitations, Mild, n (%)” value ([7]; 50 mg BID, RA patients, n = 16) of the same molecule?
**A.** 1 (6.25)

**Q.** What about the “Palpitations, Moderate, n (%)” value ([7]; 50 mg BID, RA patients, n = 16) of the same molecule?
**A.** 0

**Q.** And the “Rash erythematous, Mild, n (%)” value ([7]; 50 mg BID, RA patients, n = 16)?
**A.** 1 (6.25)

**Q.** What about the “Rash erythematous, Moderate, n (%)” value ([7]; 50 mg BID, RA patients, n = 16) of the same molecule?
**A.** 0

**Q.** What about the “Sinusitis, Mild, n (%)” value ([7]; 50 mg BID, RA patients, n = 16) of the same molecule?
**A.** 0

**Q.** And the “Sinusitis, Moderate, n (%)” value ([7]; 50 mg BID, RA patients, n = 16)?
**A.** 1 (6.25)

**Q.** And the “Skin abrasion, Mild, n (%)” value ([7]; 50 mg BID, RA patients, n = 16)?
**A.** 1 (6.25)

**Q.** What about the “Skin abrasion, Moderate, n (%)” value ([7]; 50 mg BID, RA patients, n = 16) of the same molecule?
**A.** 0

**Q.** And the “Urinary tract infection, Mild, n (%)” value ([7]; 50 mg BID, RA patients, n = 16)?
**A.** 0

**Q.** And the “Urinary tract infection, Moderate, n (%)” value ([7]; 50 mg BID, RA patients, n = 16)?
**A.** 2 (12.5)

**Q.** And the “Ventricular extrasystoles, Mild, n (%)” value ([7]; 50 mg BID, RA patients, n = 16)?
**A.** 1 (6.25)

**Q.** What about the “Ventricular extrasystoles, Moderate, n (%)” value ([7]; 50 mg BID, RA patients, n = 16) of the same molecule?
**A.** 0

**Q.** And the “White blood cell count increased, Mild, n (%)” value ([7]; 50 mg BID, RA patients, n = 16)?
**A.** 1 (6.25)

**Q.** And the “White blood cell count increased, Moderate, n (%)” value ([7]; 50 mg BID, RA patients, n = 16)?
**A.** 0
